Source: PubChem BioAssay (NCI)
Several values for one entry are separate records, joined by “and”; a condition that tells them apart may be missing. Equal entries are not always repeated.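 Protocol summary: plate cells (96-well), add compound at 5 concentrations, incubate 48 h, interpolate endpoints linearly. GI50 marks 50% less growth. At the TGI there is no net growth.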

Key:
Assay in all cases: NCI tumour cell line growth inhibition, 48 h
A498 renal = test system: A498 renal
A549 NSCLC = test system: A549 NSCLC
HOP-92 NSCLC = test system: HOP-92 NSCLC
K-562 leukemia = test system: K-562 leukemia
MCF7 breast = test system: MCF7 breast
MDA-MB-435 = test system: MDA-MB-435
NCI/ADR-RES ovarian = test system: NCI/ADR-RES ovarian
OVCAR-3 ovarian = test system: OVCAR-3 ovarian
OVCAR-4 ovarian = test system: OVCAR-4 ovarian
SK-OV-3 ovarian = test system: SK-OV-3 ovarian

Row | SMILES | GI50 (A498 renal) | TGI (A498 renal) | GI50 (A549 NSCLC) | TGI (A549 NSCLC) | GI50 (HOP-92 NSCLC) | TGI (HOP-92 NSCLC) | GI50 (K-562 leukemia) | TGI (K-562 leukemia) | GI50 (MCF7 breast) | TGI (MCF7 breast) | GI50 (MDA-MB-435) | TGI (MDA-MB-435) | GI50 (NCI/ADR-RES ovarian) | TGI (NCI/ADR-RES ovarian) | GI50 (OVCAR-3 ovarian) | TGI (OVCAR-3 ovarian) | GI50 (OVCAR-4 ovarian) | TGI (OVCAR-4 ovarian) | GI50 (SK-OV-3 ovarian) | TGI (SK-OV-3 ovarian)
1 | CC(C)COC(=O)c1ccc2[nH]c(O)c(C=Nc3ccc(S(N)(=O)=O)cc3)c2c1 | 2280 nM | 5.9 µM | 1.74 µM | 5.88 µM | 1450 nM | 4.22 µM | 2320 nM | 17.1 µM | 1240 nM | 4.5 µM | 1680 nM | 5.79 µM | 5.36 µM | 21.2 µM | 0.802 µM | 2.28 µM | 2.39 µM | 7.79 µM | 2.19 µM | 6.25 µM
2 | CCn1c2ccccc2c2cc(C(O)c3cccc4ncccc34)ccc21 (stereo not drawn) | 25.1 nM | 0.267 µM | 0.0684 µM | > 49.4 µM | 32.4 nM | 4.98 µM | 38.9 nM | 10.9 µM | 33.1 nM | 20.2 µM | 21.5 nM | 0.06 µM | 0.0396 µM | 13.7 µM | 0.0422 µM | 39.9 µM | 0.318 µM | 87.3 µM | 0.0545 µM | > 100 µM
3 | CC(=O)Oc1ccc(C(c2ccc(OC(C)=O)cc2)c2ccccn2)cc1 | 8900 nM | > 100 µM | 49.7 µM | > 100 µM | 861 nM | 34.3 µM and > 94.1 µM | 39300 nM | > 100 µM | 516 nM | > 100 µM | 53200 nM | > 100 µM | 0.908 µM | > 100 µM | 9.94 µM | 98.9 µM and 23.2 µM | 0.287 µM | 4.42 µM | 31.7 µM | > 100 µM and 98.3 µM
4 | COc1ccc(C2=CC(c3ccc(OC)c(OC)c3)c3c(c4ccccc4oc3=O)O2)cc1OC (stereo not drawn) | 892 nM | > 20.2 µM | 3.07 µM | > 100 µM | 4800 nM | > 100 µM | 1020 nM | > 100 µM | 424 nM | > 100 µM | 244 nM | 0.831 µM | 0.545 µM | – | 0.313 µM | – | 3.85 µM | > 100 µM | 2.68 µM | > 100 µM
5 | OCCN1CCN(CC/C=C2\c3ccccc3Sc3ccc(Cl)cc32)CC1 | 2140 nM and 1840 nM | 4.29 µM and 7.94 µM | 4.79 µM and 4.13 µM | 22.9 µM and 14.3 µM | 1020 nM and 2440 nM | 6.1 µM and 14.1 µM | 1520 nM and 1770 nM | 2.94 µM and 3.68 µM | 1520 nM and 2210 nM | 3.34 µM and 5.45 µM | 1990 nM and 2010 nM | 4.78 µM and 4.63 µM | 10.3 µM and 8.06 µM | 24.8 µM and 21.8 µM | 2.88 µM and 5.66 µM | 13.1 µM and 17.8 µM | 8.38 µM and 8.18 µM | 20.7 µM and 21.1 µM | 6.48 µM and 5.76 µM | 19.1 µM and 16.9 µM
6 | CC(Br)C(=O)Nc1ccc(C(=O)O)c(O)c1 (stereo not drawn) | – | > 100 µM | – | > 100 µM | – | > 100 µM | – | > 100 µM | – | > 100 µM | – | > 100 µM | – | > 100 µM | – | 73.7 µM | – | > 100 µM | – | > 100 µM
7 | Cc1cccc(Nc2cnc(N)nc2N)c1 | – | > 100 µM | – | > 100 µM | – | > 100 µM | – | > 100 µM | – | > 100 µM | – | > 100 µM | – | > 100 µM | – | > 100 µM | – | > 100 µM | – | > 100 µM
8 | CN1C(Cl)=NS(=O)(=O)c2ccccc21 | – | > 100 µM | – | > 100 µM | – | > 100 µM | – | > 100 µM | – | > 100 µM | – | > 100 µM | – | > 100 µM | – | > 100 µM | – | > 100 µM | – | > 100 µM
9 | Cn1cnc([N+](=O)[O-])c1Sc1ncn[nH]1 | > 100000 nM | > 100 µM | > 100 µM | > 100 µM | 29200 nM | > 100 µM | 32300 nM | > 100 µM | > 100000 nM | > 100 µM | > 100000 nM | > 100 µM | > 100 µM | > 100 µM | 47.3 µM | > 100 µM | 72 µM | > 100 µM | > 100 µM | > 100 µM
10 | COc1cc2c(c(OC3OC(CO)C(O)C(O)C3O)c1)C(=O)CC(c1ccc(O)cc1)O2 (stereo not drawn) | – | > 100 µM | – | > 100 µM | – | > 100 µM | – | > 100 µM | – | > 100 µM | – | > 100 µM | – | > 100 µM | – | > 100 µM | – | > 100 µM | – | > 100 µM
11 | COc1ccc2nc(NC(=O)c3cccnc3Nc3cc(OC)c(OC)c(OC)c3)sc2c1 | 2190 nM | 7.42 µM | 7.38 µM | 22 µM | 2240 nM | 9.5 µM | 8910 nM | > 100 µM | 515 nM | 13.6 µM | 1850 nM | 10.4 µM | 8.97 µM | 25.7 µM | 8.92 µM | 21.5 µM | 15 µM | 32.6 µM | 3.72 µM | 14.5 µM
12 | CCOC(=O)c1c(C)c(C)n2c1NC(=O)C2 | – | > 100 µM | – | > 100 µM | – | > 100 µM | – | > 100 µM | – | 84 µM | – | > 100 µM | – | 81.5 µM | – | > 100 µM | – | > 100 µM | – | > 100 µM
13 | CN(C)CCN1C(=O)c2cccc3cccc(c23)C1=O | 13400 nM | > 25 µM | 12.9 µM | > 25 µM | 14800 nM | > 25 µM | 9680 nM | > 25 µM | 9310 nM | > 25 µM | > 25000 nM | > 25 µM | 19.6 µM | > 25 µM | 21.5 µM | > 25 µM | > 25 µM | > 25 µM | 24.5 µM | > 25 µM
14 | Cn1c(=O)c(Oc2ccc(F)cc2F)cc2cnc(NCCS(C)(=O)=O)nc21 | > 25000 nM | > 25 µM | > 25 µM | > 25 µM | > 25000 nM | > 25 µM | > 25000 nM | > 25 µM | > 25000 nM | > 25 µM | > 25000 nM | > 25 µM | > 25 µM | > 25 µM | > 25 µM | > 25 µM | > 25 µM | > 25 µM | > 25 µM | > 25 µM
